Data from patent US20070197488A1, “Prodrugs of ERbeta-selective substances, process for their production, and pharmaceutical compositions that contain these compounds” (priority 2005, published 2007).

What was measured:
[1] = biological target: Human Carbonic Anhydrase II (Homo sapiens, UniProt P00918); test: Carbonic anhydrase inhibition (CO2 hydration, time to pH drop); assay type: biochemical; settings: read-out: CAII IC50
Description: (§1) b) Carbonic Anhydrase Inhibition—Test Principle and Test Description:
(§2) Carbonic anhydrases catalyze the CO2 hydration.
(§3) Test preparation: A constant CO2 stream is directed through a buffer that was mixed with carbonic anhydrase I or carbonic anhydrase II. The measuring parameter is the time that is required to drop the pH within defined limits. This parameter reflects the formation of H2CO3 in the medium. IC50-Inhibiting values are determined by test substances being pipetted into the test preparation.

[2] = biological target: Human Carbonic Anhydrase I (Homo sapiens, UniProt P00915); test: as above; assay type: biochemical; settings: read-out: CAI IC50
Chain of Human Carbonic Anhydrase I (P00915 whole entry): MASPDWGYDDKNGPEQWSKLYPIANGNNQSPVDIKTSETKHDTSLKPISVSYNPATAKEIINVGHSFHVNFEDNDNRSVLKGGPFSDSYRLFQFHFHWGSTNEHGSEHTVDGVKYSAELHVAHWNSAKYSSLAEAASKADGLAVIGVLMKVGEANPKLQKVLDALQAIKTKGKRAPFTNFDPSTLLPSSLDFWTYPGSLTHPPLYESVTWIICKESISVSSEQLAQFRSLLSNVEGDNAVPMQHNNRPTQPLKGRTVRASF
Description: as §1, §2, §3

[3] = Plasma level of released mother estrogen after oral administration in ovariectomized rats; assay type: in vivo, Wistar rats; settings: 1x oral 1 mg/animal, compared with oral 8-vinyl-E2
Description: Adult Wistar rats were ovariectomized 14 days after this operation for the study of the substances according to the invention. A treatment extended over 3 days (days 1-3), and on day 4, the animals were sacrificed. Then, the recovery of plasma for hormone-analytical and clinical-chemical determinations and the determination of uterus weights were carried out. In satellite tests, correspondingly conditioned animals were sacrificed and samples were taken of their blood after one-time treatment and at other times (see FIGS. 1 and 2).

| Compound | IC50 [1] | IC50 [2] | Increase of the 8β-vinylestra-1,3,5(10)-triene-3,17β-diol level (8-vinyl-E2) in the plasma [3] |
| --- | --- | --- | --- |
| C[C@]12CC[C@@H]3c4ccc(OS(N)(=O)=O)cc4CC[C@H]3[C@@H]1CC[C@@H]2O [Estradiol-3-sulfamate] | 21.6 ± 1.5 nM | 157 ± 10.6 nM |  |
| C=C[C@@]12CCc3cc(O)ccc3[C@H]1CC[C@]1(C)[C@@H](OC(=O)c3ccccc3)CC[C@H]12 [(3′-Hydroxy-8′beta-vinyl-estra-1′,3′,5′(10′)-trien-17′beta-yl)-benzoat] | > 10000 nM | > 10000 nM |  |
| C=C[C@@]12CCc3cc(O)ccc3[C@H]1CC[C@]1(C)[C@@H](OC(=O)c3ccc(S(N)(=O)=O)cc3)CC[C@H]12 [Example 2, (3′-Hydroxy-8′-vinylestra-1′,3′,5′(10′)-trien-17′β-yl)-4-sulfamoyl benzoate] |  |  | greater increase |
| C=C[C@@]12CCc3cc(O)ccc3[C@H]1CC[C@]1(C)[C@@H](OC(=O)c3cccc(S(N)(=O)=O)c3)CC[C@H]12 [Example 1, (3′-Hydroxy-8′-vinylestra-1′,3′,5′(10′)-trien-17′β-yl)-3-sulfamoyl benzoate] | 570 nM | 3900 nM | Considerably greater increase |
